Measurements reported in patent publication US10906905B2, “Five-membered heteroaryl ring bridged ring derivative, preparation method therefor and medical use thereof” (Jiangsu Hengrui Medicine Co., Ltd., priority 2016, dated 2021).

Experiments:
TGFβRI kinase ALK5 = TGFβRI kinase ALK5 (Homo sapiens (Human), UniProt P36897); test: Inhibition of TGFβRI kinase ALK5 activity (TGFβRI kinase assay kit, ADP-Glo); assay type: biochemical; conditions: ATP 50 μM; read-out: IC50 of inhibition effect on TGFβRI kinase ALK5 activity
Chain of TGFβRI kinase ALK5 (P36897 34-503): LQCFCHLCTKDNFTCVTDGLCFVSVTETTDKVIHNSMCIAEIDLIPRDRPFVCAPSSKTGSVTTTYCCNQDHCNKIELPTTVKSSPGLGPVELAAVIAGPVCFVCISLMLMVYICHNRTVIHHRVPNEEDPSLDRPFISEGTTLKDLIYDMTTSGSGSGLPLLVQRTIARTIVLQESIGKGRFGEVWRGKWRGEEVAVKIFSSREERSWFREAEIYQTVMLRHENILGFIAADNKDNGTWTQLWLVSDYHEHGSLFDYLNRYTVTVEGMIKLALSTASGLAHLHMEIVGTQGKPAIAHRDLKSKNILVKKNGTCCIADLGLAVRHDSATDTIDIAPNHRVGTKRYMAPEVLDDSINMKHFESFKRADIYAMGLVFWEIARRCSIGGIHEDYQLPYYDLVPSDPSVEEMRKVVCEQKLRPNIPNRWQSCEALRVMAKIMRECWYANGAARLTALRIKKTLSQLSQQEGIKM
Procedure, shortened: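 Kinase reaction: 2 ng/μL enzyme in Tris pH 7.5, MgCl2, BSA buffer with 50 μM ATP and 0.2 μg/μL substrate peptide, 2.5 h at 27 °C. ADP formation read by ADP-Glo luminescence over 3-fold compound dilutions; IC50 calculated from signal versus concentration.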

[1] = molecular target: recombinant human VEGFR2 enzyme (Homo sapiens (Human), UniProt P35968); test: Inhibition of VEGFR2 kinase activity (Z'-LYTE Kinase Assay Kit); assay type: biochemical; conditions: ATP 50 μM; read-out: IC50 of inhibition effect on VEGFR2 kinase activity
Chain of recombinant human VEGFR2 enzyme (P35968 20-1356): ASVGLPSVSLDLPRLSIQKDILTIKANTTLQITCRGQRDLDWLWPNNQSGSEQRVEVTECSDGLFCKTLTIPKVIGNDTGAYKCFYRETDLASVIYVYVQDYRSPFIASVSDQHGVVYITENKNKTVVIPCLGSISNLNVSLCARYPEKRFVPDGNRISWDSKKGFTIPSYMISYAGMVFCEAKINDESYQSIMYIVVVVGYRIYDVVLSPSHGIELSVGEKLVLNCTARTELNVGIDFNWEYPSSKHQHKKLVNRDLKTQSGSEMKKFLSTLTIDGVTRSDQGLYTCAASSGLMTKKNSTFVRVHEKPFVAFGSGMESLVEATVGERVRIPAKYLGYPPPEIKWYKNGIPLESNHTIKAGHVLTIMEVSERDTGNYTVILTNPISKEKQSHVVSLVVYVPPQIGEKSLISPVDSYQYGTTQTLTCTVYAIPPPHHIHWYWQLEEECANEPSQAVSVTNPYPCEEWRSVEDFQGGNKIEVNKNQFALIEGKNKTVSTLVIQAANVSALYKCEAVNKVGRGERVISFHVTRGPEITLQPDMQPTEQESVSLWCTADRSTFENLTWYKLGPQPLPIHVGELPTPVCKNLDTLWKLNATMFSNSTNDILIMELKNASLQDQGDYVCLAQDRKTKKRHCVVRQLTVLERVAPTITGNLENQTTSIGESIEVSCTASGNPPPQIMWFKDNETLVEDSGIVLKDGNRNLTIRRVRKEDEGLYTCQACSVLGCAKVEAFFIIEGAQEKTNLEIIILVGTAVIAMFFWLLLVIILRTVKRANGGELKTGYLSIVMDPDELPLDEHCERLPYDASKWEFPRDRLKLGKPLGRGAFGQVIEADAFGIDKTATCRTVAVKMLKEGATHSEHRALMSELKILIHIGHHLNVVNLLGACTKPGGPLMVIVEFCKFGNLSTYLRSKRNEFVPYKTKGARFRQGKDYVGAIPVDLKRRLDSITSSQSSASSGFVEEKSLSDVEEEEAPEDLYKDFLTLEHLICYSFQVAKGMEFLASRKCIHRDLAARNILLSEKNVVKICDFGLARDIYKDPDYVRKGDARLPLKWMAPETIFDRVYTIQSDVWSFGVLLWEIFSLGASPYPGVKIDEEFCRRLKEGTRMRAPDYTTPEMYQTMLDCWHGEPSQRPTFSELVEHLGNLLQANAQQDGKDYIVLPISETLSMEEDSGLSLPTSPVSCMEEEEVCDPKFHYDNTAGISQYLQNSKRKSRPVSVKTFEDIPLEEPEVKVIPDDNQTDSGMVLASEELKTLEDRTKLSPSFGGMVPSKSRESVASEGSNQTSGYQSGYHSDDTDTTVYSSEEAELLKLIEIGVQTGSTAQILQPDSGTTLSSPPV
Procedure: The inhibition effect of VEGFR2 kinase activity in vitro was determined by the following method.
The inhibition effect of the compounds of the present invention on VEGFR2 kinase activity was determined by the following experimental method:
After reaction at 25° C. for 2 hours, 5 μL of detection reagent was added to each well. […] The IC50 values of the compounds for enzyme inhibition were calculated using Graphpad prism software based on each concentration of the compound and the corresponding signal value thereof.

p38α kinase = p38α kinase (Homo sapiens (Human), UniProt Q16539); test: Inhibition of p38α kinase activity (p38α kinase assay kit, ADP-Glo); assay type: biochemical; conditions: ATP 50 μM; read-out: IC50 of inhibition effect on p38α kinase activity
Chain of p38α kinase (Q16539 whole entry): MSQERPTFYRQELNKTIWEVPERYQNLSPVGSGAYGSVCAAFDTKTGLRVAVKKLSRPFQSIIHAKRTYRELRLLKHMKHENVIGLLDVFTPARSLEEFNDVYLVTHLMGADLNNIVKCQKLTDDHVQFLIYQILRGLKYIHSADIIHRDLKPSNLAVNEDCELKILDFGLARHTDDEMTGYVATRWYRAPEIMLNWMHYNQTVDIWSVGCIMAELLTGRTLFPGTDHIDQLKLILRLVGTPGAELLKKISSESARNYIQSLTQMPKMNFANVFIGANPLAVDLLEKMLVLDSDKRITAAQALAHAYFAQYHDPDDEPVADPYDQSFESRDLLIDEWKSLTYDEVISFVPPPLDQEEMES
Procedure: The inhibition of p38α kinase activity in vitro was determined by the following method.
The inhibition effect of the compounds of the present invention on p38a kinase activity was determined by the following experimental method:
p38α kinase assay kit (V9591, Promega) was used to assay enzyme activity. 2 μl of enzyme solution (the final concentration of enzyme in the reaction system was 0.5 ng/μL) formulated with reaction buffer (40 mM Tris pH 7.5, 20 mM MgCl2, 0.1 mg/ml BSA), 1 μl of a 3-fold gradient dilution of the compounds dissolved in 5% DMSO, and 2 μl of a mixed solution of ATP and p38 substrate peptide (the final concentration of ATP was 50 μM, and the final concentration of substrate was 0.2 μg/μL) were added successively to a 384-well plate (4514, Corning). After reaction at 27° C. for 2.5 hours, 5 μl of ADP-Glo solution in the kit was added to each well, then the plate was placed at 27° C. for 40 minutes. 10 μl of kinase assay reagent was then added to each well, then the plate was placed at 27° C. for 30 minutes. The chemiluminescence signal values were measured with a Victor 3 (PerkinElmer) multi-function microplate reader. The IC50 values of the compounds on enzyme inhibition were calculated using Graphpad prism software based on each concentration of the compound and the corresponding signal value thereof.

NIH3T3 cell = test: Inhibition of NIH3T3 cell proliferation (CellTiter-Glo); assay type: cell-based; conditions: Mus musculus, 72 hours, 0.5% FBS
Procedure: The inhibition effect of the compounds of the present invention on NIH3T3 cell proliferation was determined by the following in vitro test.
The inhibition effect of the compounds of the present invention on NIH3T3 cell proliferation was determined by the following experimental method:
On a 96-well white plate with transparent bottom (3903, Corning), 100 μL of NIH3T3 cell (GNM6, Cell Bank of Typical Culture Collection Committee of Chinese Academy of Sciences) was seeded in a DMEM medium containing 10% FBS in each well. The seeding density is 2000 cells/well. The cells were incubated overnight at 37° C., 5% CO2. After overnight incubation, each well was replaced with 90 μL of DMEM medium containing 0.5% FBS. 10 μl of a 3-fold gradient dilution of the compounds with DMEM medium containing 0.5% FBS was then added, and the plate was incubated for 72 hours in a cell incubator at 37° C., 5% CO2. Finally, 50 μL of CellTiter-Glo (G7573, Promega) was added to each well. After incubation for 10 minutes at room temperature, the chemiluminescence signal values were measured with a Victor 3 microplate reader (PerkinElmer). The IC50 values of the compounds were calculated using Graphpad Prism software based on each concentration of the compound and the corresponding signal value thereof.

[2] = system: Smad signaling pathway of TGFβRI; test: Inhibition of Smad signaling pathway of TGFβRI (3TP-lux luciferase reporter in HepG2 cell); assay type: cell-based; conditions: Homo sapiens; HepG2 cell, 3TP-lux plasmid, 18 hours; read-out: IC50 on the inhibition of Smad signaling pathway of TGFβRI

| IC50 (TGFβRI kinase ALK5) [µM] | IC50 [1] [µM] | IC50 (p38α kinase) [µM] | IC50 [2] [µM] | Structure (SMILES) | IC50 (NIH3T3 cell) [µM] |
| --- | --- | --- | --- | --- | --- |
| 0.009 | 3.05 | 0.618 | 0.036 | Cc1cccc(-c2nc3n(c2-c2ccc4nccc(C(N)=O)c4c2)[C@H]2CC[C@@H]3C2)n1 [Example 1-1, 6-((5S,8R)-2-(6-Methylpyridin-2-yl)-5,6,7,8-tetrahydro-5,8-methanoimidazo[1,2-a]pyridin-3-yl)quinoline-4-carboxamide] | 0.089 |
| 0.003 | 1.16 | 1.71 | 0.021 | Cc1cccc(-c2nc3n(c2-c2ccc4nnc(C(N)=O)n4c2)[C@H]2CC[C@@H]3C2)n1 [Example 2-1, 6-((5S,8R)-2-(6-Methylpyridin-2-yl)-5,6,7,8-tetrahydro-5,8-methanoimidazo[1,2-a]pyridin-3-yl)[1,2,4]triazolo[4,3-a]pyridine-3-carboxamide] | 0.044 |
| 0.004 | 2.89 | 0.686 | 0.019 | Cc1cccc(-c2nc3n(c2-c2ccnc(-c4ccc(S(C)(=O)=O)cc4)c2)[C@H]2CC[C@@H]3C2)n1 [Example 3-1, (5S,8R)-2-(6-Methylpyridin-2-yl)-3-(2-(4-(methylsulfonyl)phenyl)pyridin-4-yl)-5,6,7,8-tetrahydro-5,8-methanoimidazo[1,2-a]pyridine] | 0.028 |
| 0.026 | 6.3 | 4.73 | 0.024 | NC(=O)c1ccnc2ccc(-c3c(-c4ccc(F)cn4)nc4n3[C@H]3CC[C@@H]4C3)cc12 [Example 39-1, 6-((5S,8R)-2-(5-Fluoropyridin-2-yl)-5,6,7,8-tetrahydro-5,8-methanoimidazo[1,2-a]pyridin-3-yl)quinoline-4-carboxamide] | 0.088 |
